Source: EPA's ToxRefDB 2

Assays:
dog [1] = conditions: Sub-acute repeat dose toxicity, beagle, Oral, Gavage/Intubation, dose end: 1 month, group: systemic
rat [2] = conditions: Prenatal developmental toxicity study, sprague dawley, Oral, Gavage/Intubation, dose end: 17 GD
rabbit [3] = conditions: Prenatal developmental toxicity study; new zealand white; Oral; Gavage/Intubation; dose end: 19 GD; group: maternal; reproductive / reproductive performance / postimplantation loss / postimplantation loss + reproductive / reproductive performance / …
rabbit [4] = conditions: Prenatal developmental toxicity study; new zealand white; Oral; Gavage/Intubation; dose end: 19 GD; group: maternal; reproductive / reproductive performance / resorptions / resorptions + systemic / in life observation / body weight / body weight gain + …
rat [5] = conditions: Fertility (Segment I), sprague dawley, Oral, Gavage/Intubation, dose end: 7 GD
rat [6] = conditions: Chronic toxicity, sprague dawley, Oral, Gavage/Intubation, dose end: 6 month, group: systemic
rat [7] = conditions: Prenatal developmental toxicity study, sprague dawley, Oral, Gavage/Intubation, dose end: 17 GD; remark: listed apart in the source
rat [8] = conditions: Sub-acute repeat dose toxicity, sprague dawley, Oral, Gavage/Intubation, dose end: 1 month, group: systemic
rat [9] = conditions: Fertility (Segment I), sprague dawley, Oral, Gavage/Intubation, dose end: 7 GD; remark: listed apart in the source
rat [10] = conditions: Prenatal developmental toxicity study, sprague dawley, Oral, Gavage/Intubation, dose end: 17 GD, group: maternal
dog [11] = conditions: Chronic toxicity, beagle, Oral, Gavage/Intubation, dose end: 6 month, group: systemic
rat [12] = conditions: Sub-acute dermal toxicity, sprague dawley, Topical, dose end: 21 day, group: systemic
dog [13] = conditions: Subchronic oral toxicity in nonrodent, beagle, Capsule, dose end: 96 day, group: systemic, systemic / in life observation / body weight / body weight gain + systemic / in life observation / clinical signs / emaciation + systemic / …
dog [14] = conditions: Subchronic oral toxicity in nonrodent, beagle, Feed, dose end: 118 day, group: systemic
rat [15] = conditions: Prenatal developmental toxicity study, sprague dawley, Oral, Gavage/Intubation, dose end: 19 GD
rat [16] = conditions: Subchronic oral toxicity in rodents, wistar, Feed, dose end: 90 day, group: systemic
[17] = systemic / clinical chemistry / alanine aminotransferase (alt/sgpt) / alanine aminotransferase (alt/sgpt) + systemic / clinical chemistry / …
[18] = systemic / hematology / erythrocyte (rbc) count differential / erythrocyte (rbc) + systemic / hematology / hematocrit (hct) / hematocrit (…
[19] = group: developmental, systemic / in life observation / body weight / fetal weight
[20] = group: maternal, reproductive / reproductive performance / aborted / aborted + reproductive / reproductive performance / postimplantation loss / …
[21] = group: maternal, reproductive / reproductive performance / estrous cycle / corpora lutea + reproductive / reproductive performance / implantations / …
[22] = group: parental, systemic / in life observation / body weight / body weight gain + systemic / in life observation / food consumption / food consumption
[23] = systemic / pathology gross / uterus / dilatation
[24] = systemic / pathology microscopic / parathyroid gland / adenoma + systemic / clinical chemistry / alanine aminotransferase (alt/sgpt) / …
[25] = group: maternal, reproductive / reproductive performance / aborted / aborted + reproductive / reproductive performance / gestation index / gestation index + …
[26] = group: maternal, reproductive / reproductive performance / estrous cycle / abnormal + reproductive / reproductive performance / estrous cycle / corpora lutea…
[27] = group: parental, systemic / in life observation / body weight / body weight + systemic / in life observation / body weight / body weight gain + systemic / in…
[28] = systemic / in life observation / body weight / body weight gain + systemic / in life observation / food consumption / food consumption
[29] = systemic / in life observation / body weight / body weight gain + systemic / in life observation / food consumption / food consumption + …
[30] = systemic / in life observation / body weight / body weight + systemic / organ weight / thymus / absolute + systemic / organ weight / thymus…
[31] = systemic / in life observation / clinical signs / erythema
[32] = systemic / clinical chemistry / creatinine / creatinine + systemic / clinical chemistry / urea nitrogen / urea nitrogen
[33] = systemic / clinical chemistry / creatinine / creatinine + systemic / clinical chemistry / urea nitrogen / urea nitrogen + systemic / …
[34] = group: developmental, developmental / developmental malformation / bone / bent + developmental / developmental malformation / bone / full supernumerary + …
[35] = group: maternal, reproductive / reproductive performance / resorptions / resorptions + systemic / in life observation / clinical signs / abnormal movements…
[36] = systemic / organ weight / liver / absolute + systemic / organ weight / liver / relative to body weight

SMILES: CN(C)C(=O)NC1(c2ccccc2)CCN(CCC[C@]2(c3ccc(Cl)c(Cl)c3)CCCN(C(=O)c3ccccc3)C2)CC1
- LOAEL (dog [1]; [17]): > 360 mg/kg/day
- NOAEL (dog [1]; [17]): ≥ 360 mg/kg/day
- LEL (dog [1]; [18]): 40 mg/kg/day
- NEL (dog [1]; [18]): < 40 mg/kg/day
- LEL (rat [2]; [19]): 250 mg/kg/day
- LOAEL (rat [2]; [19]): > 250 mg/kg/day
- NEL (rat [2]; [19]): < 250 mg/kg/day
- NOAEL (rat [2]; [19]): ≥ 250 mg/kg/day
- LEL (rat [2]; [20]): 250 mg/kg/day
- LOAEL (rat [2]; [20]): > 250 mg/kg/day
- NEL (rat [2]; [20]): < 250 mg/kg/day
- NOAEL (rat [2]; [20]): ≥ 250 mg/kg/day
- LEL (rabbit [3]): 50 mg/kg/day
- LOAEL (rabbit [3]): > 100 mg/kg/day
- NEL (rabbit [3]): < 50 mg/kg/day
- NOAEL (rabbit [3]): ≥ 100 mg/kg/day
- LEL (rabbit [4]): 75 mg/kg/day
- LOAEL (rabbit [4]): > 75 mg/kg/day
- NEL (rabbit [4]): 25 mg/kg/day
- NOAEL (rabbit [4]): ≥ 75 mg/kg/day
- LEL (rat [5]; [21]): 150 mg/kg/day
- LOAEL (rat [5]; [21]): > 150 mg/kg/day
- NEL (rat [5]; [21]): 75 mg/kg/day
- NOAEL (rat [5]; [21]): ≥ 150 mg/kg/day
- LEL (rat [5]; [22]): 150 mg/kg/day
- LOAEL (rat [5]; [22]): > 150 mg/kg/day
- NEL (rat [5]; [22]): 75 mg/kg/day
- NOAEL (rat [5]; [22]): ≥ 150 mg/kg/day
- LEL (rat [6]; [23]): 25 mg/kg/day
- NEL (rat [6]; [23]): < 25 mg/kg/day
- LOAEL (rat [6]; [24]): > 250 mg/kg/day
- NOAEL (rat [6]; [24]): ≥ 250 mg/kg/day
- LEL (rat [7]; [19]): 200 mg/kg/day
- LOAEL (rat [7]; [19]): > 200 mg/kg/day
- NEL (rat [7]; [19]): 75 mg/kg/day
- NOAEL (rat [7]; [19]): ≥ 200 mg/kg/day
- LEL (rat [7]; [25]): 200 mg/kg/day
- LOAEL (rat [7]; [25]): 200 mg/kg/day
- NEL (rat [7]; [25]): 75 mg/kg/day
- NOAEL (rat [7]; [25]): 75 mg/kg/day
- LOAEL (rat [8]; [17]): > 250 mg/kg/day
- NEL (rat [8]; [17]): 25 mg/kg/day
- NOAEL (rat [8]; [17]): ≥ 250 mg/kg/day
- LEL (rat [8]; systemic / pathology gross / mammary gland / [other]): 75 mg/kg/day
- LOAEL (rat [9]; [26]): > 250 mg/kg/day
- NEL (rat [9]; [26]): 75 mg/kg/day
- NOAEL (rat [9]; [26]): ≥ 250 mg/kg/day
- LEL (rat [9]; [21]): 150 mg/kg/day
- LOAEL (rat [9]; [27]): > 250 mg/kg/day
- NOAEL (rat [9]; [27]): ≥ 250 mg/kg/day
- LEL (rat [9]; [22]): 75 mg/kg/day
- NEL (rat [9]; [22]): < 75 mg/kg/day
- LEL (rat [10]; [28]): 100 mg/kg/day
- LOAEL (rat [10]; [28]): 100 mg/kg/day
- NEL (rat [10]; [29]): 50 mg/kg/day
- NOAEL (rat [10]; [29]): 50 mg/kg/day
- LOAEL (dog [11]; [17]): > 90 mg/kg/day
- NOAEL (dog [11]; [17]): ≥ 90 mg/kg/day
- LEL (dog [11]; [30]): 10 mg/kg/day
- NEL (dog [11]; [30]): < 10 mg/kg/day

SMILES: CCCCCCCCCCCCN=C(N)N [Dodecylguanidine]
- LOAEL (rat [12]; systemic / in life observation / body weight / body weight gain): 50 mg/kg/day
- NOAEL (rat [12]; systemic / in life observation / body weight / body weight gain + systemic / in life observation / clinical signs / desquamation + systemic…): 25 mg/kg/day
- LEL (rat [12]; [31]): 12.5 mg/kg/day
- NEL (rat [12]; [31]): < 12.5 mg/kg/day
- LEL (dog [13]): 100 mg/kg/day
- LOAEL (dog [13]): 100 mg/kg/day
- NEL (dog [13]): 25 mg/kg/day
- NOAEL (dog [13]): 25 mg/kg/day

SMILES: CNC.Cc1cc(Cl)ccc1OCC(=O)O [MCPA-dimethylammonium]
- LEL (dog [14]; [32]): 2.4 mg/kg/day
- LOAEL (dog [14]; [32]): 2.4 mg/kg/day
- NEL (dog [14]; [33]): 0.6 mg/kg/day
- NOAEL (dog [14]; [33]): 0.6 mg/kg/day
- LEL (rat [15]; [34]): 185 mg/kg/day
- LOAEL (rat [15]; [34]): 185 mg/kg/day
- NEL (rat [15]; [34]): 62 mg/kg/day
- NOAEL (rat [15]; [34]): 62 mg/kg/day
- LEL (rat [15]; [35]): 185 mg/kg/day
- LOAEL (rat [15]; [35]): 185 mg/kg/day
- NEL (rat [15]; [35]): 62 mg/kg/day
- NOAEL (rat [15]; [35]): 62 mg/kg/day
- LOAEL (rat [16]; [17]): 208 mg/kg/day
- NOAEL (rat [16]; [17]): 42 mg/kg/day
- LEL (rat [16]; [36]): 4 mg/kg/day
- NEL (rat [16]; [36]): < 4 mg/kg/day
